Measurements: patent publication US20250186456A1, “PYRIMIDINE-FUSED CYCLIC COMPOUND AND PREPARATION METHOD AND USE THEREOF” (Genfleet Therapeutics (Shanghai) Inc., priority 2021, published 2025)
Like-named read-outs stand apart in the source and are kept apart here.

Key:
Type in all cases: cell-based, human
[1] = system: p-ERK in AGS cells (KRAS G12D mutation); assay: Cell p-ERK assay (HTRF, Advance ERK phospho-T202/Y204 kit); conditions: AGS cells, 3 hours incubation with compound, HTRF, read-out: AGS p-ERK IC50
Protocol: AGS was purchased from ATCC; catalog No: CRL-1739; F12K was purchased from Gibco; catalog No: 21127-022; FBS was purchased from Gibco; catalog No: 10099-141C; trypsin (containing EDTA) was purchased from Gibco, catalog No: 25200-072; DMSO was purchased from VWRAMRESCO; catalog No: 0231-500 ML; 96-well cell culture plates were purchased from Corning; catalog No: 3599; white opaque 96-well plates were purchased from Cisbio; catalog No: 66PL96025; Advance ERK phospho-T202/Y204 kit was purchased from Cisbio; catalog No: 64AERPEH; cell counters were purchased from CHEMOMETEC; model No: NC-200; microplate reader was purchased from PerkinElmer; model No: Envison.
AGS is an endogenous human gastric adenocarcinoma cell line containing the KRAS^G12D mutation, cultured in F12K+10% FBS medium. On the first day of the experiment, cells in the logarithmic growth phase were taken, digested with trypsin (containing EDTA), collected, and counted. Approximately 20000 cells/well were seeded in a 96-well cell culture plate and cultured overnight in an incubator with 5% CO2. 1000X stock solutions of compounds at a 3.16-fold concentration gradient were prepared using DMSO, and diluted 200-fold into a 5X compound stock solution using the medium described above. The 5X compound stock solution was added to each cell culturing well the day after cell seeding at a final concentration of 1X and a DMSO content of 0.1%. DMSO was used as a control in the experiment. After the compound was added and the incubation was kept for 3 hours, the medium in the culture wells was removed. 50 μl of Cell lysis solution (from Advance ERK phospho-T202/Y204 kit, the same below) was added to each well, mixed well, and incubated for 30 minutes and then 16 μl of the mixed solution was transferred to a white opaque 96-well plate, another 16 μl of cell lysis solution was added to a well as a blank well. After transferring, 4 μl of p-ERK HTRF antibody mixture (from Advance ERK phospho-T202/Y204 kit) was added to each well. After incubation for 4 hours, HTRF fluorescence value (RLU) was read by a microplate reader, and p-ERK level inhibition rate (IR (%)=(RLU control-RLU compound)/(RLU control-RLU blank)×100%) of the compounds was calculated. The concentration of the compounds and corresponding cell p-ERK level inhibition rate were fitted using Prism 8 four-parameters method, and the IC50 value was calculated.

[2] = system: AsPC-1 cells (KRAS G12D mutation); assay: Cell proliferation inhibition assay, 3D, CellTiter-Glo 3D, AsPC-1; conditions: AsPC-1 3D sphere model, 5 days incubation
Description: (§1) AsPC-1 was purchased from ATCC; catalog No: CRL-1682; AGS was purchased from ATCC; catalog No: CRL-1739; RPMI1640 was purchased from Gibco; catalog No: 11875-093 2235123; F12K was purchased from Gibco; catalog No: 21127-022; FBS was purchased from Gibco; catalog No: 10099-141C; trypsin (containing EDTA) was purchased from Gibco; catalog No: 25200-072; CellTiter Glo-3D was purchased from Progema; catalog No: G9683; 384-well sphere plates were purchased from Corning; catalog No: 3830; white opaque 384-well plates were purchased from Corning; catalog No: 3570; cell counters were purchased from CHEMOMETEC; model: NC-200; microplate reader was purchased from PerkinElmer; model: Envison;
(§2) AsPC-1 is an endogenous human pancreatic cancer cell containing KRAS^G12D mutation, cultured in RPMI-1640 medium containing 10% FBS; AGS is a human gastric cancer cell line containing KRAS^G12D, cultured in F-12K medium containing 10% FBS. Cells in the logarithmic growth phase were taken, digested with trypsin (containing EDTA), collected, and counted. 800 AsPC-1 cells/well or 400 AGS cells/well, respectively, were seeded in a 384-well sphere plate and cultured overnight at 5% CO2 to establish a 3D cell model. 1000X stock solutions of compounds at a 3.16-fold concentration gradient of were prepared using DMSO, diluted 100-fold into a 10X compound stock solution using the medium described above. The 10X compound stock solution was added to each cell on 2nd day after cell seeding at a final concentration of 1X and a DMSO content of 0.1%. DMSO was used as a control in the experiment, and the medium was used as blank. After the addition of the compounds, the cells were incubated for 5 days. 30 μl of CellTiter-Glo work solution was added to each well, mixed well, and incubated for 30 minutes. After standing at room temperature for 30 minutes, 40 μl of the mixed solution was transferred to an opaque 384-well plate with a white clear bottom. Luminescence chemiluminescence value was read by a microplate reader, and the cell proliferation inhibition rate (IR (%)=(RLU control-RLU compound)/(RLU control-RLU blank)×100%) was calculated. The gradiently diluted concentration of the compounds and corresponding cell proliferation inhibition rate were fitted using XLFit four-parameters method, and the IC50 value was calculated. […] The results of some exemplary compounds are shown in Table 2 (“−” represents untested).

[3] = system: AGS cells (KRAS G12D); assay: Cell proliferation inhibition assay, 3D, CellTiter-Glo 3D, AGS; conditions: AGS 3D sphere model, 5 days incubation
Description: as §1, §2

IC50 [1] [nM]	IC50 [2] [nM]	IC50 [3] [nM]	SMILES	IC50 ([1]; Homo sapiens) [nM]	IC50 ([2]; Homo sapiens, ASPC1, 120 h) [nM]	IC50 ([3]; Homo sapiens, 120 h) [nM]
–	–	–	C#Cc1c(F)ccc2cc(O)cc(-c3nc4c5c(nc(OCC67CCCN6CC(F)(F)C7)nc5c3F)N3C[C@H]5CC[C@H](N5)[C@H]3[C@H](C)O4)c12 (stereo partly drawn) [Example Z723, 4-((5S,5aS,6S,9R)-12-((2,2-difluorotetrahydro-1H-pyrrolizin-7a (5H)-yl)methoxy)-1-fluoro-5-methyl-5a,6,7,8,9,10-hexahydro-5H-4-oxa-3,10a, 11,13,14-pentaaza-6,9-methanonaphtho[1,8-ab]heptalene-2-yl)-5-ethynyl-6-fluoronaphthalen-2-ol]	6.96	55.4	15.1
–	–	–	C#Cc1c(F)ccc2cccc(-c3nc4c5c(nc(OCC67C[C@@H](F)CN6CCC7=C)nc5c3F)N3C[C@H]5CC[C@H](N5)[C@H]3[C@H](C)O4)c12 (stereo partly drawn) [Example Z675, (5S,5aS,6S,9R)-2-(8-ethynyl-7-fluoronaphthalen-1-yl)-1-fluoro-12-(((6R)-6-fluoro-1-methylenetetrahydro-1H-pyrrolizin-7a (5H)-yl)methoxy)-5-methyl-5a,6,7,8,9,10-hexahydro-5H-4-oxa-3,10a,11,13,14-pentaaza-6,9-methanonaphtho[1,8-ab]heptalene]	11.1	31.2	31.2
–	–	–	C#Cc1c(F)ccc2cccc(-c3nc4c5c(nc(OCC67CC8CC8N6CCC7=C)nc5c3F)N3C[C@H]5CC[C@H](N5)[C@H]3[C@H](C)O4)c12 (stereo partly drawn) [Example Z635, (5S,5aS,6S,9R)-2-(8-ethynyl-7-fluoronaphthalen-1-yl)-1-fluoro-5-methyl-12-((5-methylenehexahydrocyclopropa[b]pyrrolizin-5a (3H)-yl)methoxy)-5a,6,7,8,9,10-hexahydro-5H-4-oxa-3,10a, 11,13,14-pentaaza-6,9-methanonaphtho[1,8-ab]heptalene]	50	218	224
–	–	–	C#Cc1cccc2c(F)c(N)cc(-c3nc4c5c(nc(OCC67C[C@@H](F)CN6CCC7=C)nc5c3F)N3C[C@H]5CC[C@H](N5)[C@H]3[C@H](C)O4)c12 (stereo partly drawn) [Example Z728, 5-ethynyl-1-fluoro-4-((5S,5aS,6S,9R)-1-fluoro-12-(((6R)-6-fluoro-1-methylenetetrahydro-1H-pyrrolizin-7a (5H)-yl)methoxy)-5-methyl-5a,6,7,8,9,10-hexahydro-5H-4-oxa-3,10a, 11, 13,14-pentaaza-6,9-methanonaphtho[1,8-ab]heptalene-2-yl) naphthalen-2-amine]	0.95	5.41	3.75
–	–	–	CCc1cccc2cc(O)cc(-c3nc4c5c(nc(OC[C@@]67CCCN6C[C@H](F)C7)nc5c3F)N3C[C@H]5CC[C@H](N5)[C@H]3CO4)c12 [Example Z140-1, 5-Ethyl-4-((5aS,6S,9R)-1-Fluoro-12-(((2R,7aS)-2-Fluorotetrahydro-1H-Pyrrolizin-7a (5H)-Yl)Methoxy)-5a,6,7,8,9,10-Hexahydro-5H-4-Oxa-3,10a,11,13,14-Pentaaza-6,9-Methanonaphtho[1,8-Ab]Heptalen-2-Yl) Naphthalen-2-Ol]	2.85	21.1	4
–	–	–	C#Cc1cccc2cc(N)cc(-c3nc4c5c(nc(OCC6(CN7CC[C@@H](F)C7)CC6)nc5c3F)N3C[C@H]5CC[C@H](N5)[C@H]3[C@H](C)O4)c12 [Example Z710, 5-Ethynyl-4-((5S,5aS,6S,9R)-1-Fluoro-12-((1-(((R)-3-Fluoropyrrolidin-1-Yl)Methyl)Cyclopropyl)Methoxy)-5-Methyl-5a,6,7,8,9,10-Hexahydro-5H-4-Oxa-3,10a,11,13,14-Pentaaza-6,9-Methanonaphtho[1,8-Ab]Heptalen-2-Yl) Naphthalen-2-Amine]	0.34	3.72	4.26
–	–	–	C#Cc1cccc2cc(N)cc(-c3nc4c5c(nc(OCC6(CN7CC(F)(F)C7)CC6)nc5c3F)N3C[C@H]5CC[C@H](N5)[C@H]3[C@H](C)O4)c12 [Example Z713, 4-((5S,5aS,6S,9R)-12-((1-((3,3-difluoroazetidin-1-yl)methyl)cyclopropyl)methoxy)-1-fluoro-5-methyl-5a,6,7,8,9,10-hexahydro-5H-4-oxa-3,10a, 11, 13,14-pentaaza-6,9-methanonaphtho[1,8-ab]heptalen-2-yl)-5-ethynylnaphthalen-2-amine]	22	55.6	73.5
–	–	–	C#Cc1c(F)ccc2cccc(-c3nc4c5c(nc(OCC6(CN7CCC(=C)C7)CC6)nc5c3F)N3C[C@H]5CC[C@H](N5)[C@H]3[C@H](C)O4)c12 [Example Z698, (5S,5aS,6S,9R)-2-(8-Ethynyl-7-Fluoronaphthalen-1-Yl)-1-Fluoro-5-Methyl-12-((1-((3-Methylenepyrrolidin-1-Yl)Methyl)Cyclopropyl)Methoxy)-5a,6,7,8,9,10-Hexahydro-5H-4-Oxa-3,10a,11,13,14-Pentaaza-6,9-Methanonaphtho[1,8-Ab]Heptalene]	21.7	49.3	18.8
–	–	–	C#Cc1cccc2c(F)c(N)cc(-c3nc4c5c(nc(OCC67CCCN6CC(F)(F)C7)nc5c3F)N3C[C@H]5CC[C@H](N5)[C@H]3[C@H](C)O4)c12 (stereo partly drawn) [Example Z725, 4-((5S,5aS,6S,9R)-12-((2,2-difluorotetrahydro-1H-pyrrolizin-7a (5H)-yl)methoxy)-1-fluoro-5-methyl-5a,6,7,8,9,10-hexahydro-5H-4-oxa-3,10a,11,13,14-pentaaza-6,9-methanonaphtho[1,8-ab]heptalen-2-yl)-5-ethynyl-1-fluoronaphthalen-2-amine]	42.3	106	62.7
14.6	53.5	39.1	C#Cc1c(F)ccc2cccc(-c3nc4c5c(nc(OC[C@]67CCCN6CCC7=C)nc5c3F)N3C[C@H]5CC[C@H](N5)[C@H]3[C@H](C(F)F)O4)c12 [Example Z648, (5R,5aS,6S,9R)-5-(difluoromethyl)-2-(8-etbynyl-7-fluoronaphthalen-1-yl)-1-fluoro-12-(((R)-1-methylenetetrahydro-1H-pyrrolizin-7a (5H)-yl)methoxy)-5a,6,7,8,9,10-hexahydro-5H-4-oxa-3,10a, 11,13,14-pentaaza-6,9-methanonaphtho[1,8-ab]heptalene]	–	–	–
–	–	–	C#Cc1cccc2cc(N)cc(-c3nc4c5c(nc(OCC6(CN7CCOCC7)CC6)nc5c3F)N3C[C@@H](C)NC[C@H]3[C@H](C)O4)c12 [Example Z709, 5-ethynyl-4-((5S,5aS,8R)-1-fluoro-5,8-dimethyl-11-((1-(morpholinomethyl)cyclopropyl)methoxy)-5,5a,6,7,8,9-hexahydro-4-oxa-3,7,9a,10,12-pentaazabenzo[4,5]cyclohepta[1,2,3-de]naphthalen-2-yl) naphthalen-2-amine]	12.2	117	86.8
